Experimental data taken from PubChem BioAssay (NCI).
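Dose response: 5 concentrations. Exposure: 48 h. Format: 96-well plates. Endpoint: linear interpolation; highest concentration if not reached. GI50 = concentration required for 50% inhibition of growth. TGI denotes the concentration required for complete inhibition of growth.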

What was measured:
Assay in all cases: DTP human tumour cell line panel, 48 h
786-0 renal = tested on: 786-0 renal
A498 renal = tested on: A498 renal
A549 NSCLC = tested on: A549 NSCLC
ACHN renal = tested on: ACHN renal
BT-549 breast = tested on: BT-549 breast
CAKI-1 renal = tested on: CAKI-1 renal
CCRF-CEM leukemia = tested on: CCRF-CEM leukemia
COLO 205 colon = tested on: COLO 205 colon
DU-145 prostate = tested on: DU-145 prostate
HCC-2998 colon = tested on: HCC-2998 colon
HCT-116 colon = tested on: HCT-116 colon
HCT-15 colon = tested on: HCT-15 colon
HL-60(TB) leukemia = tested on: HL-60(TB) leukemia
HOP-62 NSCLC = tested on: HOP-62 NSCLC
HOP-92 NSCLC = tested on: HOP-92 NSCLC
HS 578T breast = tested on: HS 578T breast
HT29 colon = tested on: HT29 colon
IGROV1 ovarian = tested on: IGROV1 ovarian
K-562 leukemia = tested on: K-562 leukemia
KM12 colon = tested on: KM12 colon
LOX IMVI melanoma = tested on: LOX IMVI melanoma
M14 melanoma = tested on: M14 melanoma
MALME-3M melanoma = tested on: MALME-3M melanoma
MCF7 breast = tested on: MCF7 breast
MDA-MB-231 breast = tested on: MDA-MB-231 breast
MDA-MB-435 = tested on: MDA-MB-435
MOLT-4 leukemia = tested on: MOLT-4 leukemia
NCI-H226 lung = tested on: NCI-H226 lung
NCI-H23 lung = tested on: NCI-H23 lung

SMILES: CC(C)C[C@H](NC(=O)Cn1cccc(CNC(=O)c2ccccc2)c1=O)B(O)O
- GI50 (786-0 renal): 1060 nM
- TGI (786-0 renal): > 61500 nM
- GI50 (A498 renal): 136 nM
- TGI (A498 renal): 706 nM
- GI50 (A549 NSCLC): 4540 nM
- TGI (A549 NSCLC): > 100000 nM
- GI50 (ACHN renal): 626 nM
- TGI (ACHN renal): > 100000 nM
- GI50 (BT-549 breast): 162 nM
- TGI (BT-549 breast): 1540 nM
- GI50 (CAKI-1 renal): 3700 nM
- TGI (CAKI-1 renal): 44900 nM
- GI50 (CCRF-CEM leukemia): 374 nM
- TGI (CCRF-CEM leukemia): > 20100 nM
- GI50 (COLO 205 colon): 1650 nM
- TGI (COLO 205 colon): 97800 nM
- GI50 (DU-145 prostate): 734 nM
- TGI (DU-145 prostate): 45100 nM
- GI50 (HCC-2998 colon): 893 nM
- TGI (HCC-2998 colon): 2570 nM
- GI50 (HCT-116 colon): 337 nM
- TGI (HCT-116 colon): 2650 nM
- GI50 (HCT-15 colon): 4700 nM
- TGI (HCT-15 colon): 37300 nM
- GI50 (HL-60(TB) leukemia): 653 nM
- TGI (HL-60(TB) leukemia): > 100000 nM
- GI50 (HOP-62 NSCLC): 1210 nM
- TGI (HOP-62 NSCLC): 6380 nM
- GI50 (HOP-92 NSCLC): 638 nM
- TGI (HOP-92 NSCLC): 4610 nM
- GI50 (HS 578T breast): 335 nM
- GI50 (HT29 colon): 352 nM
- TGI (HT29 colon): 11500 nM
- GI50 (IGROV1 ovarian): 4010 nM
- TGI (IGROV1 ovarian): 45800 nM
- GI50 (K-562 leukemia): 1300 nM
- TGI (K-562 leukemia): > 100000 nM
- GI50 (KM12 colon): 649 nM
- TGI (KM12 colon): 3000 nM
- GI50 (LOX IMVI melanoma): 244 nM
- TGI (LOX IMVI melanoma): 811 nM
- GI50 (M14 melanoma): 270 nM
- TGI (M14 melanoma): 1420 nM
- GI50 (MALME-3M melanoma): 160 nM
- TGI (MALME-3M melanoma): 1880 nM
- GI50 (MCF7 breast): 409 nM
- TGI (MCF7 breast): > 100000 nM
- GI50 (MDA-MB-231 breast): 567 nM
- TGI (MDA-MB-231 breast): 3060 nM
- GI50 (MDA-MB-435): 158 nM
- TGI (MDA-MB-435): 355 nM
- GI50 (MOLT-4 leukemia): 289 nM
- TGI (MOLT-4 leukemia): > 100000 nM
- GI50 (NCI-H226 lung): 202 nM
- TGI (NCI-H226 lung): 457 nM
- GI50 (NCI-H23 lung): 1050 nM
